According to patent publication US8410106B2, “Hydrazine-substituted anthranilic acid derivatives” (Bayer Cropscience AG, priority 2010, dated 2013):
Read-outs that look alike come from different tables or passages of the source.

Legend:
[1] = system: larvae of the mustard beetle (Phaedon cochleariae); assay: Phaedon test (PHAECO spray treatment); settings: in Brassica rapa, foliar, 168 h, read-out: activity (beetle larvae killed)
[2] = logP determination by HPLC on reversed-phase columns (C 18), EEC Directive 79/831 Annex V.A8; assay type: physicochemical
[3] = system: greenhouse red spidermite (Tetranychus urticae); assay: Tetranychus test, OP-resistant (TETRUR spray treatment); assay type: in vivo; settings: after 6 days, bean leaf discs
Procedure: (§1) After 6 days the activity is determined, in %.

[4] = system: caterpillars of the army worm (Spodoptera frugiperda); assay: Spodoptera frugiperda test (SPODFR spray treatment); assay type: in vivo; settings: foliar, 168 h, read-out: activity (caterpillars killed)
[5] = system: green peach aphid (Myzus persicae); assay: Myzus test (MYZUPE spray treatment); assay type: in vivo; settings: in Brassica rapa, foliar, 144 h, read-out: activity (aphids killed)
Procedure: as §1

Row | Compound | pest or weed control at 100 g/ha [1] [%] | chromatographic logP ([2]; HPLC, reversed-phase C 18, table value without method mark, read-out: logP) | activity (mites killed) ([3]; application rate 100 g/ha) [%] | pest or weed control at 100 g/ha ([4]; application rate 100 g/ha, after 7 days, maize leaf discs, spray) [%] | chromatographic logP [2] | activity (mites killed) ([3]; application rate 500 g/ha) [%] | pest or weed control at 100 g/ha [5] [%] | pest or weed control at 100 g/ha ([4]; in Zea mays) [%]
1 | COC(=O)N(C)NC(=O)c1cc(Cl)cc(C)c1NC(=O)c1cc(Cn2nnc(C(F)(F)F)n2)nn1-c1ncccc1C#N [Example 59] | 100 | 2.73 | 100 | 100 | – | – | – | –
2 | COC(=O)N(C)NC(=O)c1cc(Cl)cc(Cl)c1NC(=O)c1cc(Cn2nc(OC)n(C)c2=O)nn1-c1ncccc1Cl [Example 67] | – | – | – | – | 1.9 | 100 | – | –
3 | COC(=O)NNC(=O)c1cc(Cl)cc(C)c1NC(=O)c1cc(Cn2cc(C3CC3)nn2)nn1-c1ncccc1Cl [Example 38] | 100 | – | – | – | 2.02 | – | 100 | 100
4 | COC(=O)N(C)NC(=O)c1cc(I)cc(C)c1NC(=O)c1cc(Cn2nnc(C(F)(F)F)n2)nn1-c1ncccc1Cl [Example 51] | 100 | – | – | – | 3.15 | – | 100 | 100
5 | COC(=O)N(C)NC(=O)c1cc(Cl)cc(Cl)c1NC(=O)c1cc(Cn2nc(C(F)(F)F)c(Br)c2C)nn1-c1ncccc1Cl [Example 12] | 100 | – | – | – | 3.57 | – | 100 | 100
6 | COC(=O)N(C)NC(=O)c1cc(I)cc(C)c1NC(=O)c1cc(Cn2nnc(C(F)F)n2)nn1-c1ncccc1Cl [Example 74] | 100 | – | – | – | 2.64 | – | 100 | 100
7 | COC(=O)N(C)NC(=O)c1cc(Cl)cc(C)c1NC(=O)c1cc(Cn2nnc(C(F)F)n2)nn1-c1ncccc1Cl [Example 26] | 100 | – | – | – | 2.49 | – | 100 | 100
8 | COC(=O)N(C)N(C)C(=O)c1cc(C#N)cc(C)c1NC(=O)c1cc(Cn2nnc(C(F)(F)F)n2)nn1-c1ncccc1Cl [Example 8] | 100 | – | – | – | 2.97 | – | 100 | 100
